From ChEMBL document CHEMBL1131933, “Cleavage of the cyclohexyl-subunit of rapamycin results in loss of immunosuppressive activity” (Bioorg Med Chem Lett, 1999)

Tests used:
[1] = target: Peptidyl-prolyl cis-trans isomerase FKBP1A (Homo sapiens, UniProt P62942); assay: Compound was tested in vitro for its ability to compete with immobilized FK506 for binding to biotinylated FK506 binding protein 12 in a competitive binding assay
[2] = Compound was tested in vitro for its ability to inhibit the proliferation of the IL-6-dependent hybridoma clone B13-29-15; format: functional
[3] = Compound was tested in vitro for inhibitory activity in the mixed lymphocyte reaction (MLR) assay; format: functional

Sequence of Peptidyl-prolyl cis-trans isomerase FKBP1A (P62942 whole entry): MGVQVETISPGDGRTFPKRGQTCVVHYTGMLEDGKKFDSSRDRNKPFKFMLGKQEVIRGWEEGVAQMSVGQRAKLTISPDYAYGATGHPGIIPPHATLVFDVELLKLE

| IC50 [1] [nM] | IC50 [3] [nM] | Compound | IC50 [2] [nM] |
| --- | --- | --- | --- |
| 3.4 | > 380 | COC(=O)CC[C@H](CCO)C[C@@H](C)[C@@H]1CC(=O)[C@H](C)/C=C(\C)[C@@H](O)[C@@H](OC)C(=O)[C@H](C)C[C@H](C)/C=C/C=C/C=C(\C)[C@@H](OC)C[C@@H]2CC[C@@H](C)[C@@](O)(O2)C(=O)C(=O)N2CCCC[C@H]2C(=O)O1 | 200 |
|  | 1 | CO[C@H]1C[C@@H]2CC[C@@H](C)[C@@](O)(O2)C(=O)C(=O)N2CCCC[C@H]2C(=O)O[C@H]([C@H](C)C[C@@H]2CC[C@@H](O)[C@H](OC)C2)CC(=O)[C@H](C)/C=C(\C)[C@@H](O)[C@@H](OC)C(=O)[C@H](C)C[C@H](C)/C=C/C=C/C=C/1C [SIROLIMUS] | 1 |
